Measurements: patent publication US20240317791A1 (priority 2021, published 2024)
Values after ≈ are worked out from the molar mass of the structure shown. Where two headings read alike, the source gives them in different places.

Key:
Candida auris = assay: MIC determination against clinical isolates of Candida auris (CLSI M27, 4th edition); assay type: cell-based; details: Candidozyma auris, read-out: MIC values
Excerpt: (§1) MIC: Minimum Inhibitory Concentration (MIC) is defined as the lowest concentration of an antimicrobial ingredient that is bacteriostatic.
(§2) Testing has been performed in triplicates for each isolate.

Mucor circinelloides = assay: MIC determination against ATCC and clinical isolates of the order Mucorales (CLSI M27, 4th edition); assay type: cell-based
Excerpt: as §1, §2

Rhizopus microsporus = assay: MIC determination against clinical isolates of the order Mucorales (CLSI M27, 4th edition); assay type: cell-based
Excerpt: as §1, §2

Rhizopus oryzae = assay: as above; assay type: cell-based; details: Rhizopus arrhizus, strain 2086, clinical strain
Excerpt: as §1, §2

Candida albicans = details: cited from earlier work
Aspergillus spp. = details: 13 strains of Aspergillus spp.; cited from earlier work
Penicillium spp. = details: 5 strains of Penicillium spp.; cited from earlier work
Sporothrix schenkii = details: 1 strain of Sporothrix schenkii; cited from earlier work
Mucor sp. = details: 4 strains of Mucor sp.; cited from earlier work
Paecilomyces variotii = details: 2 strains Paecilomyces variotii; cited from earlier work
Candida sp. = details: cited from earlier work
[1] = rats, cited from earlier work
rat erythrocytes = details: cited from earlier work
[2] = single intravenous administration, amcipatricin diascorbate 1.25 mg/kg, amphotericin B 1 mg/kg

With CNc1ccc(C(=O)CC(O)CC[C@H](C)C2OC(=O)C[C@H](O)CC(=O)C[C@H](O)C[C@H](O)C[C@H](O)C[C@H](O)C[C@]3(O)C[C@H](O)[C@@H](C(=O)NCCN(C)C)C(C[C@@H](OC4OC(C)C(O)C(NC(=O)CN(C)C)C4O)/C=C/C=C/C=C/C=C\C=C/C=C/C=C/[C@@H]2C)O3)cc1 (stereo partly drawn) [Amcipatricin diascorbate, Candicidin D, 18-decarboxy-40-demethyl-3,7-dideoxo-N3′-[(dimethylamino)acetyl]-18-[[[2-(dimethylamino)ethyl]-amino]carbonyl]-3,7-dihydroxy-N47-methyl-5-oxo-, cyclic 15,19-hemiacetal, compound with L-ascorbic acid (1:2)] as the molecule, how does the MIC (Candida auris; strain I.2 (No 2), clade I/India) read?
Its MIC is 2 µg/mL (≈ 1.56 µM).

And the MIC (Candida auris; strain I.3 (No 3), clade I/India)?
The MIC was 2 µg/mL (≈ 1.56 µM).

And the MIC (Candida auris; strain I.4 (No 4), clade I/India)?
Its MIC is 2 µg/mL (≈ 1.56 µM).

And the MIC (Candida auris; strain II.1 (No 5), clade II/Japan)?
Its MIC is 2 µg/mL (≈ 1.56 µM).

And the MIC (Candida auris; strain II.2 (No 1), clade II/India)?
The MIC was 2 µg/mL (≈ 1.56 µM).

And the MIC (Candida auris; strain III.7 (No 12), clade III/Switzerland)?
Its MIC is 1 µg/mL (≈ 0.78 µM).

And the MIC (Candida auris; strain III.8 (No 13), clade III/Israel)?
The MIC was 1 µg/mL (≈ 0.78 µM).

What about the MIC (Candida auris; strain III.9 (No 14), clade III/Israel) of the same molecule?
Its MIC is 1 µg/mL (≈ 0.78 µM).

What about the MIC (Candida auris; strain IV.1 (No 15), clade IV/Colombia) of the same molecule?
Its MIC is 2 µg/mL (≈ 1.56 µM).

What about the MIC (Candida auris; strain IV.10 (No 7), clade IV/Israel) of the same molecule?
The MIC was 2 µg/mL (≈ 1.56 µM).

What about the MIC (Candida auris; strain IV.11 (No 8), clade IV/Israel) of the same molecule?
The MIC was 1 µg/mL (≈ 0.78 µM).

What about the MIC (Candida auris; strain IV.12 (No 9), clade IV/Israel) of the same molecule?
Its MIC is 1 µg/mL (≈ 0.78 µM).

What about the MIC (Candida auris; strain IV.13 (No 10), clade IV/Israel) of the same molecule?
The MIC was 2 µg/mL (≈ 1.56 µM).

What about the MIC (Candida auris; strain IV.14 (No 11), clade IV/Israel) of the same molecule?
Its MIC is 2 µg/mL (≈ 1.56 µM).

What about the MIC (Candida auris; strain IV.2 (No 16), clade IV/Colombia) of the same molecule?
The MIC was 2 µg/mL (≈ 1.56 µM).

What about the MIC (Candida auris; strain IV.3 (No 17), clade IV/Colombia) of the same molecule?
Its MIC is 2 µg/mL (≈ 1.56 µM).

What about the MIC (Candida auris; strain IV.4 (No 18), clade IV/Colombia) of the same molecule?
The MIC was 2 µg/mL (≈ 1.56 µM).

And the MIC (Candida auris; strain IV.5 (No 19), clade IV/Colombia)?
Its MIC is 2 µg/mL (≈ 1.56 µM).

And the MIC (Candida auris; strain IV.6 (No 20), clade IV/Colombia)?
Its MIC is 2 µg/mL (≈ 1.56 µM).

And the MIC (Candida auris; strain IV.7 (No 21), clade IV/Colombia)?
The MIC was 2 µg/mL (≈ 1.56 µM).

What about the MIC (Candida auris; strain IV.8 (No 22), clade IV/Colombia) of the same molecule?
The MIC was 2 µg/mL (≈ 1.56 µM).

What about the MIC (Candida auris; strain IV.9 (No 6), clade IV/Israel) of the same molecule?
The MIC was 2 µg/mL (≈ 1.56 µM).

And the MIC (Mucor circinelloides; ATCC24905, strain ATCC 24905, ATCC strain)?
The MIC was 4 µg/mL (≈ 3.12 µM).

And the MIC (Mucor circinelloides; strain 2109, clinical strain)?
Its MIC is 4 µg/mL (≈ 3.12 µM).

What about the MIC (Mucor circinelloides; strain 2707, clinical strain) of the same molecule?
The MIC was 4 µg/mL (≈ 3.12 µM).

And the MIC (Mucor circinelloides; strain 4280, clinical strain)?
Its MIC is 4 µg/mL (≈ 3.12 µM).

And the MIC (Rhizopus microsporus; strain 3315, clinical strain)?
The MIC was 2 µg/mL (≈ 1.56 µM).

And the MIC (Rhizopus microsporus; strain 3435, clinical strain)?
Its MIC is 4 µg/mL (≈ 3.12 µM).

And the MIC (Rhizopus oryzae)?
Its MIC is 4 µg/mL (≈ 3.12 µM).

And the “fungicidal minimum inhibitory concentration against Candida albicans” value (Candida albicans)?
Its value is 0.0075 µg/mL.

What about the “geometric means of the minimum fungicidal concentrations” value (Aspergillus spp.) of the same molecule?
The value was 12.53 µg/mL.

And the “geometric means of the minimum fungicidal concentrations” value (Penicillium spp.)?
The value was “about 12 μg/mL”.

And the MFC (Sporothrix schenkii)?
Its MFC is 19.2 µg/mL (≈ 15 µM).

What about the “fungicidal activity compared to amphotericin B” value (Mucor sp.) of the same molecule?
Its value is “most fungicidal”.

What about the “fungicidal activity compared to amphotericin B” value (Paecilomyces variotii) of the same molecule?
Its value is “most fungicidal”.

What about the “drug concentrations inhibiting conversion from yeast to mycelial form” value (Candida sp.) of the same molecule?
The value was 0.25 to 0.62 mg/L.

What about the “AUC(0-00)” value ([1]; multiple administration 1.25 mg/kg/day for 7 days, intravenous, seventh day, serum) of the same molecule?
The value was 72100 ng·h/mL.

And the serum elimination half-life ([1]; multiple administration 1.25 mg/kg/day for 7 days, intravenous, seventh day)?
The serum elimination half-life was 41.4 h.

And the “area under the curve to infinity (AUC(0-∞))” value [1, 2]?
The value was 35520 ng·h/mL.

What about the elimination half-lives [1, 2] of the same molecule?
Its elimination half-lives is 22.15 h.

And the tissue distribution ([1]; single intravenous administration)?
The tissue distribution was “higher uptake by the kidneys, followed by the liver, spleen and lungs”.

And the “haemolytic minimum concentration against rat erythrocytes” value (rat erythrocytes)?
Its value is 18 mg/mL.
